In assay [1] the test system is honey bees (Apis mellifera). Put plainly: Sucrose responsiveness assessment. As to conditions: 1μM; for sensitivity to sucrose vs control (GLM coefficient ± standard error) / sensitivity to water vs control (GLM coefficient ± standard error): injected 1h before test; for sensitivity to sucrose vs control (GLM coefficient ± standard error): sucrose 0.1–30%, ASTA p = 0.76, ASTC p = 0.55, ASTCC p = 0.13, N = 35, 49, 29 (Fig 10A); for sensitivity to water vs control (GLM coefficient ± standard error): ASTA p = 0.44, ASTC p = 0.30, ASTCC p = 0.22, N = 35, 49, 29. Format: in vivo. Here is the method:
(§1) The vehicle for allatostatins was a saline solution made of PBS containing the protease blocker, 1 mM PMSF (prepared from a 30mM stock solution in 100% ethanol, final concentration of ethanol 3.3%).
(§2) The allatostatins were injected into the head haemolymph after penetrating the median ocellus, either 1 hour before olfactory conditioning or sucrose responsiveness assessment, or immediately after olfactory conditioning. All injections were performed under a binocular microscope. A micromanipulator-controlled Hamilton syringe (Nanofil, equipped with a NF33BV2 needle, WPI) was used to inject approximately 200 nl of peptide solution. To make sure that the solution was properly injected, it was pushed out of the syringe so that a drop was visible and then the drop was put in contact with the haemolymph where it was quickly absorbed thanks to the respiratory movements of the bee. Any bee with excessive bleeding was discarded.
Since sucrose was presented diluted in water, bees were given water ad libitum immediately before testing to ensure that their responses would be elicited by sucrose only. We followed a published protocol: six sucrose solutions of increasing concentration (0.1%, 0.3%, 1%, 3%, 10% and 30%) were presented in succession to the antennae, interspersed with water stimulations to avoid sensitization. For each animal, the presence or absence of a proboscis extension response to each stimulus was recorded.
(§3) Functional data (receptor-mediated calcium, cAMP signals and binding) were plotted and regression curves were fitted using the GraphPad Prism software (San Diego, CA). The learning data were analyzed with generalized linear effects modeling (GLM) for binomial data using the R package lme4 [67]. Response levels recorded in the last conditioning trial were used to assess the effect of treatment on learning. For 1-hour memory and generalization tests, effects of allatostatin treatment were compared for each odor tested. Generalized linear mixed effects modeling (GLMM) was also used to analyze responsiveness to sucrose, with concentration and treatment as fixed factors and the bee identity and solution presented (either sucrose or water) as random factors. […] All statistics were generated in R [68].

The test system of assay [2] is honey bees (Apis mellifera). As to the kind of experiment: Olfactory generalization test. Format: in vivo. As to conditions: 1μM, injected immediately after conditioning, test 1h later, N = 66, 75, 72; for response to nonanal vs control (GLM coefficient ± standard error): ASTA p = 0.38, ASTC p = 0.41, ASTCC p = 0.30; for response to 1-hexanol vs control (GLM coefficient ± standard error): ASTA p = 0.91, ASTC p = 0.96, ASTCC p = 0.56; for response to 1-nonanol (CS) vs control (GLM coefficient ± standard error): ASTA p = 0.96, ASTC p = 0.37, ASTCC p = 0.10. How it is done:
as §1, §2
Bees that learned to respond to the conditioned stimulus (CS) at the end of conditioning were submitted to a generalization test 1h later. In addition to 1-nonanol (the CS), two novel odorants (nonanal and 1-hexanol) were presented: these were selected according to their respective high and low levels of perceptual similarity with 1-nonanol. All odorants were presented without reinforcement with sucrose. The order of odorant presentations varied across individuals, and the integrity of the reflexive response to sucrose was checked at the end of the test.
as §3

The next assay deals with T1, Apime-ASTC-R (Apis mellifera, UniProt A0A7M7GNE5).
T1 sequence (A0A7M7GNE5 1-423): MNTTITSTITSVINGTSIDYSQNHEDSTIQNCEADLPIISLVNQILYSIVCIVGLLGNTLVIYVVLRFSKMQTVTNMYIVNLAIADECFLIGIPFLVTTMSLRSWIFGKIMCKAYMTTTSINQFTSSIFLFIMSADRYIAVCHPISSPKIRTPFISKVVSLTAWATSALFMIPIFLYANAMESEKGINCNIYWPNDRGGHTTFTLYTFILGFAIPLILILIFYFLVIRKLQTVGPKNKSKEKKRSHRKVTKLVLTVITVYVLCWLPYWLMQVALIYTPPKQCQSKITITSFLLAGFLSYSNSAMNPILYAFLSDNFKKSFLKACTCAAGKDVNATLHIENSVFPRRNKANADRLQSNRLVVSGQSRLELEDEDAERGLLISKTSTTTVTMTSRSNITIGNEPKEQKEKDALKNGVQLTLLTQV
Put plainly: Intracellular cAMP reporter assay, HEK293 cells expressing Apime-ASTC-R. It counts as cell-based. Particulars: CRE-luciferase, IBMX, 10^-14 to 10^-3 M, Fig 5D-E, ASTCC effect at high concentrations (>10 μM). Here is the method: For intracellular cAMP measurements, cells were bathed in trypsin EDTA and collected, then suspended in fresh DMEM. Transfections with pRK5-ApimeAstC-R, pRK5-ApimeAstA-R or empty pRK5 vector were carried out in 15 ml Falcon tubes. Transfection medium for HEK293 cells was prepared using the Lipofectamine LTX kit (Invitrogen) with 2.5 ml Opti-MEM® (Gibco), 12.5 μl Plus™ Reagent and 4 μg of ApimeASTC-R (or ApimeASTA-R, or empty) expression construct, and 2 μg of CRE(6x)-Luc plasmid. The luciferase ORF, downstream of six tandem repeats of a cyclic AMP responsive element (CRE), in front of a minimum collate promoter, was used as a reporter gene (this reporter plasmid has been used by others)
We followed a previousy published protocol: HEK293 cells in Dulbecco's Modified Eagles Medium nutrient mixture F12-Ham (DMEM/F12, Sigma–Aldrich) supplemented with 10% heat-inactivated fetal bovine serum (Gibco), 100 IU/ml penicillin, 100 μg/ml streptomycin (Gibco) were maintained in an incubator at 37°C with constant supply of 5% CO2, until they reached 60–80% confluence. Cells were then bathed in trypsin EDTA (Gibco) until rounded. The flask was then tapped to loosen the cells, which were subsequently washed off with 5 ml DMEM/F12. The cells were gently centrifuged at 800 rpm for 5 minutes and carefully suspended in fresh DMEM, which was divided in two for transfection with receptor constructs or empty vectors. After 5 min at room temperature, 30 μl LTX was added. After an incubation period of 30 min at room temperature, the DNA/LTX mix was added to the cells. The cells were then aliquoted (100 μl per well) into a clear bottom 96-well plate (Greiner bio-one #655090) and incubated overnight (37°C, 5% CO2).
Prior to measuring cAMP, the cell medium was removed by carefully inverting the 96-well plate on filter paper and quickly replaced with 100 μl of DMEM/F12 without phenol red (Invitrogen), but containing 200 μM 3-isobutyl-1-methylxanthine (IBMX, Sigma–Aldrich) to prevent cAMP breakdown, as well as drugs to be tested. In each experiment, some wells were used to measure basal levels of cAMP in the cells (negative control), while others were used to measure cAMP levels in cells exposed to 10 μM forskolin analogue (NKH-477, Sigma Aldrich, positive control). […] All cells were incubated at 37°C and 5% CO2 for 3–4 h to allow transcription of the reporter gene before 100 μl of freshly reconstituted Steadylite Plus™ substrate (PerkinElmer) was added to each well. The 96-well plate was then placed in the dark for 15 min before light emission resulting from luciferase enzymatic activity was recorded. Measurements lasting 0.2 s/well were taken every 55 s for 10 cycles using a FLUOstar Omega microplate reader (BMG Labtech). Results were analyzed by means of the Omega software packages and further processed by Excel and GraphPad Prism softwares. In order to facilitate comparisons across experiments, bioluminescence levels are expressed relative to those in mock-transfected cells (transfected with the vector devoid of the receptor sequence) untreated with NKH-477, which were arbitrarily set at 100.
To test this prediction, we expressed the two receptors separately in HEK293 cells together with the luciferase reporter gene, downstream of the cAMP response element, CRE, but without exogenous G proteins.
Background: A reporter such as luciferase makes a cellular process visible.

From publication PMC4704819, “Honey Bee Allatostatins Target Galanin/Somatostatin-Like Receptors and Modulate Learning: A Conserved Function?” (PLoS ONE, 2016) come the findings set out here.

Entries after “also recorded” stand apart in the source; their conditions may differ. Where a SMILES comes first, the peptide text is derived from it. Bridges are numbered along the chain shown (N, C = ends).

On to `CC(C)[C@@H]1NC(=O)[C@H](C)NC(=O)[C@H](CC(N)=O)NC(=O)[C@H](Cc2ccccc2)NC(=O)[C@H](Cc2ccc(O)cc2)NC(=O)[C@@H](NC(=O)[C@H](CCCNC(=N)N)NC(=O)[C@H](Cc2c[nH]c3ccccc23)NC(=O)[C@H](Cc2ccc(O)cc2)NC(=O)[C@@H](NC(=O)[C@H](CCCNC(=N)N)NC(=O)CNC(=O)[C@H](CCCCN)NC(=O)[C@H](C)NC(=O)[C@H](CCC(N)=O)NC(=O)CN)C(C)C)CSSC[C@@H](C(=O)N[C@@H](Cc2ccccc2)C(=O)O)NC(=O)[C@H]([C@@H](C)O)NC1=O` [Apime-ASTCC] (H-GQAKGRVYWRCYFNAVTCF-OH; disulfide 11-18; N-terminus assumed), for which, in assay [1], the “responsiveness to sucrose or water / feeding, in words” value is recorded as “responded as well to 50% sucrose stimulations as control bees”; the “sensitivity to sucrose vs control (GLM coefficient ± standard error)” value is recorded as 1.21±0.81; the “sensitivity to water vs control (GLM coefficient ± standard error)” value worked out at 0.90±0.74. Moreover, in assay [2], the “response to nonanal vs control (GLM coefficient ± standard error)” value is listed as 0.37±0.36, the “response to 1-hexanol vs control (GLM coefficient ± standard error)” value is 0.20±0.34 and the “response to 1-nonanol (CS) vs control (GLM coefficient ± standard error)” value is on record as 0.71±0.44. The “effect on cAMP levels (bioluminescence), in words” value (from here on “effect on cAMP levels”) on Apime-ASTC-R is listed as “increased bioluminescence levels at high concentrations; also recorded: small increase in intracellular cAMP”. The “effect on cAMP levels” value on Apime-ASTC-R (listed as ASTCC) is given as “increased cAMP levels in the cells slightly”.
For `CC(C)[C@@H]1NC(=O)[C@H](C)NC(=O)[C@H](CC(N)=O)NC(=O)[C@H](Cc2ccccc2)NC(=O)[C@H](C)NC(=O)[C@@H](NC(=O)[C@H](CCC(N)=O)NC(=O)[C@H](CCCCN)NC(=O)[C@H](Cc2c[nH]c3ccccc23)NC(=O)[C@H](Cc2ccc(O)cc2)NC(=O)[C@@H](N)CO)CSSC[C@@H](C(=O)N[C@@H](Cc2ccccc2)C(N)=O)NC(=O)[C@H](CO)NC1=O` [Apime-ASTC] (H-SYWKQCAFNAVSCF-NH2; disulfide 6-13; N-terminus assumed), in assay [1], the “responsiveness to sucrose or water / feeding, in words” value was “responded as well to 50% sucrose stimulations as control bees”; the “sensitivity to sucrose vs control (GLM coefficient ± standard error)” value came to 0.41±0.68; the “sensitivity to water vs control (GLM coefficient ± standard error)” value is listed as -0.71±0.68. In assay [2], the “response to nonanal vs control (GLM coefficient ± standard error)” value is reported as 0.29±0.36, the “response to 1-hexanol vs control (GLM coefficient ± standard error)” value was 0.01±0.34 and the “response to 1-nonanol (CS) vs control (GLM coefficient ± standard error)” value is given as 0.35±0.40. For the same compound, the “effect on cAMP levels” value on Apime-ASTC-R was “did not change the bioluminescence levels”. Moreover, the “effect on cAMP levels” value at Apime-ASTC-R (listed as ASTC) is reported as “failed to increase intracellular cAMP levels”.
